Results as given in the supplement of paper PMC10307832.

Columns and labels:
Test in all cases: relative viability (nuclei count vs DMSO), 5 days (fraction); higher = more cells survive
201T = tested on: 201T
Summary of the method: (§1)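 One day after seeding in 1536-well plates, lung cancer cell lines were dosed by pin tool. Dosing was either single-drug or a fixed anchor-drug dose plus five library-drug doses (not always all listed) in √10 steps. After 5 days, nuclei were stained in one fix-and-stain step and counted on 4× images, and relative viability is the nuclei count of treated wells over that of vehicle wells, given as the median of duplicate plates.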

BEN = tested on: BEN
Summary of the method: as §1

COR-L 105 = tested on: COR-L 105
Summary of the method: as §1

COR-L23 = tested on: COR-L23
Summary of the method: as §1

EKVX = tested on: EKVX
Summary of the method: as §1

HARA = tested on: HARA
Summary of the method: as §1

HCC-15 = tested on: HCC-15
Summary of the method: as §1

HCC-366 = tested on: HCC-366
Summary of the method: as §1

HCC-78 = tested on: HCC-78
Summary of the method: as §1

HCC-827 = tested on: HCC-827
Summary of the method: as §1

LC-2-ad = tested on: LC-2-ad
Summary of the method: as §1

LU99A = tested on: LU99A
Summary of the method: as §1

LXF-289 = tested on: LXF-289
Summary of the method: as §1

NCI-H1650 = tested on: NCI-H1650
Summary of the method: as §1

NCI-H1734 = tested on: NCI-H1734
Summary of the method: as §1

NCI-H1755 = tested on: NCI-H1755
Summary of the method: as §1

NCI-H1944 = tested on: NCI-H1944
Summary of the method: as §1

NCI-H1975 = tested on: NCI-H1975
Summary of the method: as §1

NCI-H1993 = tested on: NCI-H1993
Summary of the method: as §1

NCI-H3122 = tested on: NCI-H3122
Summary of the method: as §1

NCI-H596 = tested on: NCI-H596
Summary of the method: as §1

RERF-LC-KJ = tested on: RERF-LC-KJ
Summary of the method: as §1

SK-LU-1 = tested on: SK-LU-1
Summary of the method: as §1

O=c1[nH]c2ccccc2n1C1CCN(CCCC(c2ccc(F)cc2)c2ccc(F)cc2)CC1 [Pimozide] + CS(=O)(=O)N1CCN(Cc2cc3nc(-c4cccc5[nH]ncc45)nc(N4CCOCC4)c3s2)CC1 [Pictilisib] (partner 1 µM)
relative viability (201T; first compound 0.08 µM): 0.69
relative viability (201T; first compound 0.253 µM): 0.613
relative viability (201T; first compound 0.8 µM): 0.6
relative viability (201T; first compound 2.53 µM): 0.669
relative viability (201T; first compound 8 µM): 0.599
relative viability (BEN; first compound 0.08 µM): 0.627
relative viability (BEN; first compound 0.253 µM): 0.565
relative viability (BEN; first compound 0.8 µM): 0.583
relative viability (BEN; first compound 2.53 µM): 0.542
relative viability (BEN; first compound 8 µM): 0.595
relative viability (COR-L 105; first compound 0.253 µM): 0.507
relative viability (COR-L 105; first compound 0.8 µM): 0.449
relative viability (COR-L 105; first compound 2.53 µM): 0.338
relative viability (COR-L 105; first compound 8 µM): 0.353
relative viability (COR-L23; first compound 0.08 µM): 0.705
relative viability (COR-L23; first compound 0.253 µM): 0.75
relative viability (COR-L23; first compound 0.8 µM): 0.638
relative viability (COR-L23; first compound 2.53 µM): 0.702
relative viability (COR-L23; first compound 8 µM): 0.632
relative viability (EKVX; first compound 0.253 µM): 0.349
relative viability (EKVX; first compound 0.8 µM): 0.431
relative viability (EKVX; first compound 2.53 µM): 0.409
relative viability (EKVX; first compound 8 µM): 0.401
relative viability (HARA; first compound 0.08 µM): 0.252
relative viability (HARA; first compound 0.253 µM): 0.423
relative viability (HARA; first compound 0.8 µM): 0.595
relative viability (HARA; first compound 2.53 µM): 0.351
relative viability (HARA; first compound 8 µM): 0.368
relative viability (HCC-15; first compound 0.08 µM): 0.809
relative viability (HCC-15; first compound 0.253 µM): 0.767
relative viability (HCC-15; first compound 0.8 µM): 0.616
relative viability (HCC-15; first compound 2.53 µM): 0.709
relative viability (HCC-15; first compound 8 µM): 0.749
relative viability (HCC-366; first compound 0.08 µM): 0.164
relative viability (HCC-366; first compound 0.253 µM): 0.154
relative viability (HCC-366; first compound 0.8 µM): 0.165
relative viability (HCC-366; first compound 2.53 µM): 0.0834
relative viability (HCC-366; first compound 8 µM): 0.118
relative viability (HCC-78; first compound 0.08 µM): 0.214
relative viability (HCC-78; first compound 0.253 µM): 0.244
relative viability (HCC-78; first compound 0.8 µM): 0.187
relative viability (HCC-78; first compound 2.53 µM): 0.19
relative viability (HCC-78; first compound 8 µM): 0.202
relative viability (HCC-827; first compound 0.253 µM): 1.02
relative viability (HCC-827; first compound 0.8 µM): 0.986
relative viability (HCC-827; first compound 2.53 µM): 1.04
relative viability (HCC-827; first compound 8 µM): 1.06
relative viability (LC-2-ad; first compound 0.08 µM): 0.594
relative viability (LC-2-ad; first compound 0.253 µM): 0.405
relative viability (LC-2-ad; first compound 0.8 µM): 0.461
relative viability (LC-2-ad; first compound 2.53 µM): 0.553
relative viability (LC-2-ad; first compound 8 µM): 0.305
relative viability (LU99A; first compound 0.08 µM): 0.344
relative viability (LU99A; first compound 0.253 µM): 0.284
relative viability (LU99A; first compound 0.8 µM): 0.314
relative viability (LU99A; first compound 2.53 µM): 0.302
relative viability (LU99A; first compound 8 µM): 0.334
relative viability (LXF-289; first compound 0.08 µM): 0.75
relative viability (LXF-289; first compound 0.253 µM): 0.799
relative viability (LXF-289; first compound 0.8 µM): 0.781
relative viability (LXF-289; first compound 2.53 µM): 0.744
relative viability (LXF-289; first compound 8 µM): 0.719
relative viability (NCI-H1650; first compound 0.08 µM): 0.589
relative viability (NCI-H1650; first compound 0.253 µM): 0.489
relative viability (NCI-H1650; first compound 0.8 µM): 0.461
relative viability (NCI-H1650; first compound 2.53 µM): 0.547
relative viability (NCI-H1650; first compound 8 µM): 0.182
relative viability (NCI-H1734; first compound 0.08 µM): 0.45
relative viability (NCI-H1734; first compound 0.253 µM): 0.444
relative viability (NCI-H1734; first compound 0.8 µM): 0.489
relative viability (NCI-H1734; first compound 2.53 µM): 0.411
relative viability (NCI-H1734; first compound 8 µM): 0.46
relative viability (NCI-H1755; first compound 0.08 µM): 0.438
relative viability (NCI-H1755; first compound 0.253 µM): 0.441
relative viability (NCI-H1755; first compound 0.8 µM): 0.418
relative viability (NCI-H1755; first compound 2.53 µM): 0.368
relative viability (NCI-H1755; first compound 8 µM): 0.307
relative viability (NCI-H1944; first compound 0.08 µM): 0.331
relative viability (NCI-H1944; first compound 0.253 µM): 0.337
relative viability (NCI-H1944; first compound 0.8 µM): 0.325
relative viability (NCI-H1944; first compound 2.53 µM): 0.35
relative viability (NCI-H1944; first compound 8 µM): 0.33
relative viability (NCI-H1975; first compound 0.08 µM): 0.282
relative viability (NCI-H1975; first compound 0.253 µM): 0.262
relative viability (NCI-H1975; first compound 0.8 µM): 0.297
relative viability (NCI-H1975; first compound 2.53 µM): 0.28
relative viability (NCI-H1975; first compound 8 µM): 0.202
relative viability (NCI-H1993; first compound 0.08 µM): 0.751
relative viability (NCI-H1993; first compound 0.253 µM): 0.902
relative viability (NCI-H1993; first compound 0.8 µM): 0.778
relative viability (NCI-H1993; first compound 2.53 µM): 0.91
relative viability (NCI-H1993; first compound 8 µM): 0.846
relative viability (NCI-H3122; first compound 0.08 µM): 0.523
relative viability (NCI-H3122; first compound 0.253 µM): 0.588
relative viability (NCI-H3122; first compound 0.8 µM): 0.514
relative viability (NCI-H3122; first compound 2.53 µM): 0.594
relative viability (NCI-H3122; first compound 8 µM): 0.573
relative viability (NCI-H596; first compound 0.08 µM): 0.414
relative viability (NCI-H596; first compound 0.253 µM): 0.488
relative viability (NCI-H596; first compound 0.8 µM): 0.251
relative viability (NCI-H596; first compound 2.53 µM): 0.356
relative viability (NCI-H596; first compound 8 µM): 0.344
relative viability (RERF-LC-KJ; first compound 0.08 µM): 0.597
relative viability (RERF-LC-KJ; first compound 0.253 µM): 0.524
relative viability (RERF-LC-KJ; first compound 0.8 µM): 0.522
relative viability (RERF-LC-KJ; first compound 2.53 µM): 0.505
relative viability (RERF-LC-KJ; first compound 8 µM): 0.452
relative viability (SK-LU-1; first compound 0.08 µM): 0.643
relative viability (SK-LU-1; first compound 0.253 µM): 0.566
relative viability (SK-LU-1; first compound 0.8 µM): 0.551
relative viability (SK-LU-1; first compound 2.53 µM): 0.436
relative viability (SK-LU-1; first compound 8 µM): 0.469
